Experimental data from the NIST ThermoML archive (doi:10.1021/acs.jced.7b00213).
± gives the expanded uncertainty stated by the source.

Assay: xn = mol fraction of the nth substance listed
Conditions: Gas, Buoyancy - hydrostatic balance with magnetic suspension - two sinkers, x1 = 0.05362

[HH] [hydrogen] + O=C=O
Conditions	mass density [kg/m3]
273.15 K, 513.52 kPa	9.74868 ± 0.0066
273.15 K, 1039.6 kPa	20.4494 ± 0.013
273.15 K, 1524.6 kPa	31.0881 ± 0.019
273.15 K, 2022.4 kPa	42.9575 ± 0.026
273.15 K, 2536.9 kPa	56.521 ± 0.035
273.15 K, 3036 kPa	71.3532 ± 0.044
293.15 K, 503.16 kPa	8.83486 ± 0.0072
293.15 K, 1014.6 kPa	18.2895 ± 0.014
293.15 K, 1992 kPa	37.9543 ± 0.029
293.15 K, 3016.7 kPa	61.5091 ± 0.046
293.15 K, 4051.1 kPa	89.7154 ± 0.068
293.15 K, 4984.9 kPa	121.352 ± 0.092
323.15 K, 549.21 kPa	8.70026 ± 0.0071
323.15 K, 1038.1 kPa	16.7369 ± 0.013
323.15 K, 2031.1 kPa	34.0104 ± 0.026
323.15 K, 3009.8 kPa	52.4905 ± 0.039
323.15 K, 4029.4 kPa	73.5962 ± 0.055
323.15 K, 5030.4 kPa	96.6051 ± 0.072
323.15 K, 5997.4 kPa	121.561 ± 0.092
